Experiments:
[1] = system: ethylene-induced epinasty in Patio variety tomato plants; test: Tomato epinasty test, spray application treatment; assay type: in vivo; conditions: for Spray @10 ppm: visual rating of protection against ethylene-induced epinasty: spray 10 ppm in 10% acetone/90% water, 0.05% Silwett L-77, 10 ppm ethylene, scale 0 to 10 (10 = complete protection)
Description: (§1) Objective: The test procedure is designed to determine the ability of an experimental compound to block the epinastic growth response induced by ethylene in tomato plants when the experimental compound is administered either as a volatile gas or as a component of a spray solution.
(§2) Treatment chambers are of an appropriate size for the test plants and are airtight. Each is fitted with a reusable septum to be used for injection of ethylene. Test plants are Patio variety tomato seedlings planted two plants per three inch square plastic pot.
Spray application treatment entails using a DeVilbiss atomizer to completely cover all foliage and stems of two pots of Patio var. tomato plants with the appropriate amount of experimental compound dissolved in 10% acetone/90% water with 0.05% Silwett L-77 surfactant. Plants are air-dried in a drying hood for four hours then transferred to a 4.8 L polystyrene chamber which is sealed.
Ethylene gas equal to 10 ppm v/v final concentration is injected into the sealed chamber. Sixteen hours later the chambers are opened in an exhaust hood, allowed to air and the plants scored visually for the degree of protection against ethylene-induced epinasty conferred by the experimental compound when compared to ethylene treated and untreated controls on a scale of 0 to 10. A rating of 10 means complete protection. A rating of 0 means no protection from the effects of ethylene.

[2] = system: ethylene-induced epinasty in Patio variety tomato plants; test: Tomato epinasty test, volatile gas treatment; assay type: in vivo; conditions: for Gas @ 10 ppm: visual rating of protection against ethylene-induced epinasty: gas 10 ppm v/v, 10 ppm ethylene, scale 0 to 10 (10 = complete protection); for Gas @ 1000 ppm: visual rating of protection against ethylene-induced epinasty: gas 1000 ppm v/v, 10 ppm ethylene after 4 h, scored 16 h later, scale 0 (no protection) to 10 (complete protection)
Description: as §1, §2
Volatile gas treatment entails placing two pots of Patio var. tomatoes into a polystyrene 4.8 L volume treatment chamber along with one-half (upper or lower section) of a 50×9 mm plastic Petri dish containing a Gelman filter pad. The appropriate amount of experimental compound, dissolved in 1.0 ml acetone, is pipetted onto the filter pad and the chamber immediately sealed. Four hours later ethylene gas equal to 10 ppm v/v final concentration is injected into the sealed chamber. Sixteen hours later the chambers are opened in an exhaust hood, allowed to air and the plants scored visually for the degree of protection against ethylene-induced epinasty conferred by the experimental compound when compared to ethylene treated and untreated controls on a scale of 0 to 10. A rating of 10 means complete protection. A rating of 0 means no protection from the effects of ethylene. Gas treatment concentrations are volume/volume.

Structure (SMILES)	Spray @10 ppm: visual rating of protection against ethylene-induced epinasty [1]	Gas @ 10 ppm: visual rating of protection against ethylene-induced epinasty [2]	Gas @ 1000 ppm: visual rating of protection against ethylene-induced epinasty [2]	Gas @ 500 ppm: rating of protection against epinasty ([2]; gas 500 ppm, scale 0 to 10)	Spray @ 1000 ppm: rating of protection against epinasty ([1]; spray 1000 ppm (in cell), scale 0 to 10)	Gas @ 509 ppm: rating of protection against epinasty ([2]; gas 509 ppm (in cell), scale 0 to 10)
CCCCCCCCCC1(C)C=C1 [Compound 73, 3-Methyl-3-nonyl-cyclopropene]	0	0	8	–	–	–
CS(=O)(=O)OCCCCC1=CC1 [Compound 85, 1-(4-Methanesulfonyloxybutyl)-cyclopropene]	0	0	10	–	–	–
C1=C(CCCCCCCN(c2ccccc2)c2ccccc2)C1 [Compound 13, 7-(diphenylamino)-1-heptylcyclopropene]	10	0	–	–	–	–
C1=C(CC2CCCCC2)C1 [Compound 23]	10	10	–	–	–	–
CC[Si](CC)(CC)C1=C(C)C1 [Compound 81, 1-Triethylsilyl-2-methylcyclopropene]	0	0	10	–	–	–
CCOC(=O)CCC1=C(Br)C1 [Compound 76]	0	10	–	–	–	–
CC(=O)OCOC(=O)CCC1=C(Br)C1 [Compound 75]	0	10	–	–	–	–
C1=C(CCSc2ccncc2)C1 [Compound 43]	0	10	–	–	–	–
C1=C(CCCc2ccccc2)C1 [Compound 25]	10	10	–	–	–	–
CCCCCCCC1=C(C)C1 [Compound 74, 1-Heptyl-2-methyl-cyclopropene]	0	0	10	–	–	–
COc1ccc(OCC2(C)C=C2)cc1 [Compound 16]	4.5	3.75	–	10^c^	–	–
C1=C(CCc2ccccc2)C1 [Compound 18]	6	10	–	–	–	–
CC(C)(C)OC(=O)N1CC(C(=O)OCCC2=CC2)CS1 (stereo not drawn) [Compound 52]	2	0	3	–	10	–
O=C(OCCC1=CC1)c1ccc(-n2cccc2)cc1 [Compound 62]	0	0	–	–	–	10(@509
CS(=O)(=O)OCCC1=CC1 [Compound 68, 1-(2-Methanesulfonyloxyethyl)-cyclopropene]	5	3	10	–	–	–
BrC1=C(Cc2ccccc2)C1 [Compound 45, 1-Benzyl-2-bromocyclopropene]	0	5	10	–	–	–

From patent US20110190137A1, “METHOD TO INHIBIT ETHYLENE RESPONSES IN PLANTS” (priority 2003, published 2011)
